Source: PubChem BioAssay AID1963875 (Molecular Pharmacology Branch, DTP, NCI, 2024)
pIC50: −log10 of the molar value.

Tested on: KRAS-mutant PDC complex spheroid viability
Experiment: Anticancer human tumor 186277-243-T-J2-PDC patient-derived colon adenocarcinoma cell line growth inhibition [KRAS2]
Settings: for pIC50: curve of first compound; for viability, T/C: stronger effect = lower value
Method in brief: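 Combination screen of spheroid viability in tumor-cell co-cultures with endothelial (HUVEC) and mesenchymal stem cell stroma. Each agent was tested in half-log dilutions, topping at clinical Cmax or at 10 microM without a known Cmax.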

[1] = second compound 0.1 µM, first compound 0.01 µM
[2] = second compound 0.1 µM, first compound 0.0316 µM
[3] = second compound 0.1 µM, first compound 0.1 µM
[4] = second compound 0.1 µM, first compound 0.316 µM
[5] = second compound 0.1 µM, first compound 1 µM
[6] = second compound 0.1 µM, first compound 3.16 µM
[7] = second compound 0.316 µM, first compound 0.01 µM
[8] = second compound 0.316 µM, first compound 0.0316 µM
[9] = second compound 0.316 µM, first compound 0.1 µM
[10] = second compound 0.316 µM, first compound 0.316 µM
[11] = second compound 0.316 µM, first compound 1 µM
[12] = second compound 0.316 µM, first compound 3.16 µM
[13] = second compound 1 µM, first compound 0.01 µM
[14] = second compound 1 µM, first compound 0.0316 µM
[15] = second compound 1 µM, first compound 0.1 µM
[16] = second compound 1 µM, first compound 0.316 µM
[17] = second compound 1 µM, first compound 1 µM
[18] = second compound 1 µM, first compound 3.16 µM
[19] = second compound 3.16 µM, first compound 0.01 µM
[20] = second compound 3.16 µM, first compound 0.0316 µM
[21] = second compound 3.16 µM, first compound 0.1 µM
[22] = second compound 3.16 µM, first compound 0.316 µM
[23] = second compound 3.16 µM, first compound 1 µM
[24] = second compound 3.16 µM, first compound 3.16 µM
[25] = second compound 10 µM, first compound 0.01 µM
[26] = second compound 10 µM, first compound 0.0316 µM
[27] = second compound 10 µM, first compound 0.1 µM
[28] = second compound 10 µM, first compound 0.316 µM
[29] = second compound 10 µM, first compound 1 µM
[30] = second compound 10 µM, first compound 3.16 µM
[31] = second compound 0.1 µM, first compound 10 µM
[32] = second compound 0.316 µM, first compound 10 µM
[33] = second compound 1 µM, first compound 10 µM
[34] = second compound 3.16 µM, first compound 10 µM
[35] = second compound 10 µM, first compound 10 µM
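Wherever viability, T/C is given: viability read after seven days of compound exposure; 100% = DMSO vehicle-treated spheroids so lower means less viable.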

Row | Compound | pIC50 (second compound 0.1 µM) | pIC50 (second compound 0.316 µM) | pIC50 (second compound 1 µM) | pIC50 (second compound 3.16 µM) | pIC50 (second compound 10 µM) | viability, T/C [2] | viability, T/C [3] | viability, T/C [4] | viability, T/C [5] | viability, T/C [8] | viability, T/C [9] | viability, T/C [10] | viability, T/C [11] | viability, T/C [14] | viability, T/C [15] | viability, T/C [16] | viability, T/C [17] | viability, T/C [20] | viability, T/C [21] | viability, T/C [22] | also measured
1 | CC1COCCN1c1cc(-c2ccnn2C)c2ccnc(-c3ccn[nH]3)c2n1 (stereo not given) + COc1cc2nc(C)nc(NC(C)c3cc(N)cc(C(F)(F)F)c3)c2cc1OC1CCOC1 | > 8.00 | 7.67 | 7.70 | 7.70 | 7.72 | 4.38% | 3.41% | 2.71% | 2.04% | 24.3% | 3.67% | 2.88% | 2.23% | 17.2% | 4.4% | 3.51% | 3.19% | 16.4% | 3.55% | 2.87% | viability, T/C [1]: 5.03%; viability, T/C [6]: 1.41%; viability, T/C [7]: 98.5%; viability, T/C [12]: 3.71%; viability, T/C [13]: 98.9%; viability, T/C [18]: 3.55%; viability, T/C [19]: 99.5%; viability, T/C [23]: 1.93%; viability, T/C [24]: 3.19%; viability, T/C [25]: 103%; viability, T/C [26]: 7.22%; viability, T/C [27]: 3.43%; viability, T/C [28]: 2.48%; viability, T/C [29]: 2.25%; viability, T/C [30]: 2.72%
2 | CC1OCC2(CCN(c3cnc(Sc4ccnc(N)c4Cl)c(N)n3)CC2)C1N (stereo not given) + COc1cc2nc(C)nc(NC(C)c3cc(N)cc(C(F)(F)F)c3)c2cc1OC1CCOC1 | < 5.00 | < 5.00 | < 5.00 | < 5.00 | 5.82 | 103% | 96.1% | 104% | 108% | 106% | 104% | 93.9% | 100% | 99.9% | 101% | 103% | 104% | 98.9% | 87.6% | 96.7% | viability, T/C [6]: 109%; viability, T/C [31]: 112%; viability, T/C [12]: 115%; viability, T/C [32]: 98.1%; viability, T/C [18]: 114%; viability, T/C [33]: 85.4%; viability, T/C [23]: 114%; viability, T/C [24]: 111%; viability, T/C [34]: 78.8%; viability, T/C [26]: 93.6%; viability, T/C [27]: 96.7%; viability, T/C [28]: 93.5%; viability, T/C [29]: 50.5%; viability, T/C [30]: 39%; viability, T/C [35]: 9.31%
3 | CCN1CCN(Cc2ccc(Nc3ncc(F)c(-c4cc(F)c5nc(C)n(C(C)C)c5c4)n3)nc2)CC1 + COc1cc2nc(C)nc(NC(C)c3cc(N)cc(C(F)(F)F)c3)c2cc1OC1CCOC1 | < 6.00 | < 6.00 | < 6.00 | 6.15 | 7.19 | 118% | 165% | 173% | 69.4% | 130% | 163% | 146% | 58% | 115% | 157% | 123% | 50.9% | 138% | 157% | 108% | viability, T/C (second compound 0.1 µM, first compound 0.00316 µM): 97.9%; viability, T/C [1]: 93.2%; viability, T/C (second compound 0.316 µM, first compound 0.00316 µM): 101%; viability, T/C [7]: 93.6%; viability, T/C (second compound 1 µM, first compound 0.00316 µM): 96%; viability, T/C [13]: 109%; viability, T/C (second compound 3.16 µM, first compound 0.00316 µM): 91.9%; viability, T/C [19]: 98.1%; viability, T/C [23]: 26.4%; viability, T/C (second compound 10 µM, first compound 0.00316 µM): 103%; viability, T/C [25]: 104%; viability, T/C [26]: 100%; viability, T/C [27]: 18.2%; viability, T/C [28]: 4.89%; viability, T/C [29]: 0.61%
4 | CCNC(=O)CC1N=C(c2ccc(Cl)cc2)c2cc(OC)ccc2-n2c(C)nnc21 (stereo not given) + COc1cc2nc(C)nc(NC(C)c3cc(N)cc(C(F)(F)F)c3)c2cc1OC1CCOC1 | 5.72 | 5.88 | 5.94 | 6.12 | 6.64 | 100% | 103% | 139% | 84.7% | 102% | 89.2% | 124% | 57.1% | 93.4% | 108% | 123% | 55% | 84.8% | 110% | 107% | viability, T/C [6]: 26.7%; viability, T/C [31]: 18.8%; viability, T/C [12]: 28.9%; viability, T/C [32]: 24.5%; viability, T/C [18]: 24.3%; viability, T/C [33]: 6.44%; viability, T/C [23]: 33.3%; viability, T/C [24]: 13.5%; viability, T/C [34]: 14.2%; viability, T/C [26]: 90.5%; viability, T/C [27]: 90.9%; viability, T/C [28]: 34.2%; viability, T/C [29]: 2.69%; viability, T/C [30]: 0.68%; viability, T/C [35]: 0.42%
5 | Cn1nccc1Nc1nccc(-c2cc3c(s2)C(C)(C)N(CCN2CCOCC2)C3=O)n1 + COc1cc2nc(C)nc(NC(C)c3cc(N)cc(C(F)(F)F)c3)c2cc1OC1CCOC1 | 6.58 | 6.52 | 6.66 | 6.71 | 7.12 | 90.7% | 105% | 41.4% | 9.64% | 93.1% | 97.9% | 48% | 9% | 92.2% | 100% | 28.7% | 6.92% | 91.6% | 85.6% | 23.2% | viability, T/C [6]: 5.24%; viability, T/C [31]: 5.34%; viability, T/C [12]: 4.51%; viability, T/C [32]: 4.67%; viability, T/C [18]: 3.64%; viability, T/C [33]: 4.79%; viability, T/C [23]: 7.66%; viability, T/C [24]: 4.43%; viability, T/C [34]: 4.37%; viability, T/C [26]: 86.1%; viability, T/C [27]: 38.5%; viability, T/C [28]: 4.06%; viability, T/C [29]: 1.74%; viability, T/C [30]: 0.34%; viability, T/C [35]: 0.22%
